Experimental findings from patent publication US6656022B2, “Method for polishing a semiconductor substrate member” (Hitachi, Ltd., priority 2001, dated 2003) are described below.

A short description of the data set: Solubility of abrasive-grain material at normal temperature. Format: physicochemical.
Where [1] appears, read: abrasive-grain material, normal temperature (25° C.).

Like-named read-outs stand apart in the source and are kept apart here.

On to `O=S(=O)([O-])[O-].O=S(=O)([O-])[O-].O=S(=O)([O-])[O-].[Ce+3].[Ce+3]` [Example 4, Ce2(SO4)3], for which the Solubility under setting [1] is reported as 7.59%. `[Cl][Cu][Cl]` [Example 5, CuCl2] returned a Solubility under setting [1] of 42.8%. For the molecule `O=S(=O)([O-])[O-].[Cu+2]` [Example 6, CuSO4], the Solubility was 18.2%. In the case of `OC[C@H]1O[C@@](CO)(O[C@H]2O[C@H](CO)[C@@H](O)[C@H](O)[C@H]2O)[C@@H](O)[C@@H]1O` [Example 11, sucrose], the Solubility under setting [1] came to 67.0%. Molecule `O=C(O)CC(=O)O` [Example 12, malonic acid] yielded a Solubility under setting [1] of 32.2%.
